Patent publication US12714707B2, “Combination cancer therapy using CHK inhibitor” (SHANGHAI HUAYU BIOTECHNOLOGY CO., LTD., priority 2020, dated 2026)

Key:
Format in all cases: cell-based
MMTV-HER2 [1] = assay: MTT cell death rate, MMTV-HER2 cells, 605B with Rucaparib (Example 3); settings: 48 hours; for Cell Death Rate/% 1: replicate 1; for Cell Death Rate/% 2: replicate 2; for Cell Death Rate/% 3: replicate 3
Experimental: (§1) Cell death rate was calculated by the following formula. Cell death rate=[1−(ODtest[…])]×100%
(§2) Cell death rates were analyzed using student's t-test, and group differences were deemed statistically significant when the p-value was lower than 0.05. Zheng-Jun Jin's Q value was calculated using the formula Q=EA+B/(EA+EB−EA×EB) to assess the combined effect of Compound 605B and the PARP inhibitor, wherein EA+B, EA, and EB referred to the cell death rates caused by the combined treatment, 605B treatment and PARP inhibitor treatment, respectively. A Q value higher than 1.15 meant a synergistic […] effect.
(§3) Compound 605B was tested with another PARP inhibitor, AG014699 (Rucaparib), for the inhibitory effects on breast tumor cell lines, including BT474, MCF7, and MMTV-HER2.
(§4) Briefly, these cells were cultured at 37° C. in 5% CO2 in RPMI 1640 medium supplemented with i) 10% FBS, ii) 1% penicillin and 1% streptomycin, and iii) AZD2281 (final concentration at 800 nM), Compound 605B (final concentration at 25 nM), 605B+AZD2281 (final concentration at 25 nM and 800 nM), or PBS, for 48 hours. Then, cell viability was determined by the MTT assay. The test was done in triplicate.

BT474 [2] = assay: MTT cell death rate, BT474 cells, 605B with Rucaparib (Example 3); settings: 48 hours; for Cell Death Rate/% 1: replicate 1; for Cell Death Rate/% 2: replicate 2; for Cell Death Rate/% 3: replicate 3
Experimental: as §1, §2, §3, §4

MCF7 [3] = assay: MTT cell death rate, MCF7 cells, 605B with Rucaparib (Example 3); settings: 48 hours; for Cell Death Rate/% 1: replicate 1; for Cell Death Rate/% 2: replicate 2; for Cell Death Rate/% 3: replicate 3
Experimental: as §1, §2, §3, §4

MCF7 [4] = assay: MTT cell death rate, MCF7 cells, 605B with AZD2281 (Example 2); settings: 48 hours; for Cell Death Rate/% 1: replicate 1; for Cell Death Rate/% 2: replicate 2; for Cell Death Rate/% 3: replicate 3
Experimental: as §1, §2
(§5) The combined use of Compound 605 and AZD2281 was further tested in other breast cancer cell lines, including BT474 (TCHu 143, National collection of Authenticated Cell Cultures), MCF7 (TCHu 74, National collection of Authenticated Cell Cultures), and MMTV-HER2 (a gift from Dr. Liguang-L, Shanghai Institute of Materia Medica, Chinese Academy of Sciences).
(§6) Briefly, these cells were cultured at 37° C. in 5% CO2 in RPMI 1640 medium supplemented with i) 10% FBS, ii) 1% penicillin and streptomycin, and iii) AZD2281 (final concentration at 800 nM), Compound 605B (final concentration at 25 nM), 605B+AZD2281 (final concentration at 25 nM and 800 nM), or PBS, for 48 hours. Then, cell viability was determined by a MTT assay. The test was done in triplicate.

BT474 [5] = assay: MTT cell death rate, BT474 cells, 605B with AZD2281 (Example 2); settings: 48 hours; for Cell Death Rate/% 1: replicate 1; for Cell Death Rate/% 2: replicate 2; for Cell Death Rate/% 3: replicate 3
Experimental: as §1, §2, §5, §6

MMTV-HER2 [6] = assay: MTT cell death rate, MMTV-HER2 cells, 605B with AZD2281 (Example 2); settings: 48 hours; for Cell Death Rate/% 1: replicate 1; for Cell Death Rate/% 2: replicate 2; for Cell Death Rate/% 3: replicate 3
Experimental: as §1, §2, §5, §6

[7] = system: MCF7F cells (fulvestrant-resistant); assay: MTT cell viability / cell death rate, MCF7F cells (Example 1); settings: 48 hours; for Cell Death Rate/% mean: mean of triplicate; for Cell Death Rate/% 1: replicate 1; for Cell Death Rate/% 2: replicate 2; for Cell Death Rate/% 3: replicate 3
Experimental: MCF7F cells (fulvestrant-resistant) were maintained at 37° C. in 5% CO2 in RPMI 1640 medium (10-040-CV, Coming cellgro) supplemented with 10% FBS (10270-106, GIBCO), 1% penicillin and 1% streptomycin, and used before the 10th subculture, wherein these cells were in house prepared by culturing MCF7 cells (TCHu 74, National Collection of Authenticated Cell Cultures) in medium containing 1 μM fulvestrant for approximately 18 months (Hong Liu et al., Cooperative effect of gefitinib and fumitremorgin c on cell growth and chemosensitivity in estrogen receptor alpha negative fulvestrant-resistant MCF-7 cells. Int J Oncol. 2006. 29(5):1237-1246).
Briefly, the MCF7F cells were cultured at 37° C. in 5% CO2 in RPMI 1640 medium supplemented with i) 10% FBS, ii) 1% penicillin and 1% streptomycin, and iii) AZD2281 (final concentration at 800 nM), ABT888 (final concentration at 800 nM), Compound 605B (final concentration at 25 nM), 605B+AZD2281 (final concentration at 25 nM and 800 nM), 605B+ABT888 (final concentration at 25 nM and 800 nM), or PBS (vehicle), for 48 hours. Then, cell viability was determined by a MTT assay. The test was done in triplicate.
as §1, §2

CNCc1ccc(-c2[nH]c3cc(F)cc4c3c2CCNC4=O)cc1 [Rucaparib]
Cell Death Rate/% mean (MMTV-HER2 [1]; final concentration 800 nM): 7.50%
Cell Death Rate/% 1 (MMTV-HER2 [1]; final concentration 800 nM): 7.54%
Cell Death Rate/% 2 (MMTV-HER2 [1]; final concentration 800 nM): 7.68%
Cell Death Rate/% 3 (MMTV-HER2 [1]; final concentration 800 nM): 7.29%
Cell Death Rate/% mean (BT474 [2]; final concentration 800 nM): 7.60%
Cell Death Rate/% 1 (BT474 [2]; final concentration 800 nM): 7.63%
Cell Death Rate/% 2 (BT474 [2]; final concentration 800 nM): 7.77%
Cell Death Rate/% 3 (BT474 [2]; final concentration 800 nM): 7.39%
Cell Death Rate/% mean (MCF7 [3]; final concentration 800 nM): 6.66%
Cell Death Rate/% 1 (MCF7 [3]; final concentration 800 nM): 6.88%
Cell Death Rate/% 2 (MCF7 [3]; final concentration 800 nM): 6.46%
Cell Death Rate/% 3 (MCF7 [3]; final concentration 800 nM): 6.65%

NC(=O)c1nnc(N[C@H]2CCCNC2)c2cc(-c3cccc(F)c3)sc12 [Compound 605B, 2-(3-fluorophenyl)-4-(3-piperidineamino)-thieno[2,3-d]pyridazine-7-carboxylic acid amide]
Cell Death Rate/% mean (MCF7 [4]; final concentration 25 nM): 6.51%
Cell Death Rate/% 1 (MCF7 [4]; final concentration 25 nM): 6.51%
Cell Death Rate/% 2 (MCF7 [4]; final concentration 25 nM): 6.38%
Cell Death Rate/% 3 (MCF7 [4]; final concentration 25 nM): 6.72%
Cell Death Rate/% mean (MMTV-HER2 [1]; final concentration 25 nM): 9.11%
Cell Death Rate/% 1 (MMTV-HER2 [1]; final concentration 25 nM): 9.13%
Cell Death Rate/% 2 (MMTV-HER2 [1]; final concentration 25 nM): 8.90%
Cell Death Rate/% 3 (MMTV-HER2 [1]; final concentration 25 nM): 9.29%
Cell Death Rate/% mean (BT474 [2]; final concentration 25 nM): 8.47%
Cell Death Rate/% 1 (BT474 [2]; final concentration 25 nM): 8.49%
Cell Death Rate/% 2 (BT474 [2]; final concentration 25 nM): 8.24%
Cell Death Rate/% 3 (BT474 [2]; final concentration 25 nM): 8.67%
Cell Death Rate/% mean (BT474 [5]; final concentration 25 nM): 7.67%
Cell Death Rate/% 1 (BT474 [5]; final concentration 25 nM): 7.72%
Cell Death Rate/% 2 (BT474 [5]; final concentration 25 nM): 7.45%
Cell Death Rate/% 3 (BT474 [5]; final concentration 25 nM): 7.83%
Cell Death Rate/% mean (MMTV-HER2 [6]; final concentration 25 nM): 8.50%
Cell Death Rate/% 1 (MMTV-HER2 [6]; final concentration 25 nM): 8.69%
Cell Death Rate/% 2 (MMTV-HER2 [6]; final concentration 25 nM): 8.33%
Cell Death Rate/% 3 (MMTV-HER2 [6]; final concentration 25 nM): 8.47%
Cell Death Rate/% mean (MCF7 [3]; final concentration 25 nM): 8.41%
Cell Death Rate/% 1 (MCF7 [3]; final concentration 25 nM): 8.5%
Cell Death Rate/% 2 (MCF7 [3]; final concentration 25 nM): 8.39%
Cell Death Rate/% 3 (MCF7 [3]; final concentration 25 nM): 8.33%
inhibitory effects on cells / cell death rates (in words) [7]: little inhibitory effects
Cell Death Rate/% mean ([7]; final concentration 25 nM): 4.97%
Cell Death Rate/% 1 ([7]; final concentration 25 nM): 5.03%
Cell Death Rate/% 2 ([7]; final concentration 25 nM): 5.22%
Cell Death Rate/% 3 ([7]; final concentration 25 nM): 4.67%

C[C@]1(c2nc3c(C(N)=O)cccc3[nH]2)CCCN1 [ABT888, Veliparib]
Cell Death Rate/% mean ([7]; final concentration 800 nM): 4.63%
Cell Death Rate/% 1 ([7]; final concentration 800 nM): 4.69%
Cell Death Rate/% 2 ([7]; final concentration 800 nM): 4.28%
Cell Death Rate/% 3 ([7]; final concentration 800 nM): 4.93%

O=C(c1cc(Cc2n[nH]c(=O)c3ccccc23)ccc1F)N1CCN(C(=O)C2CC2)CC1 [AZD2281, Olaparib]
Cell Death Rate/% mean (MCF7 [4]; final concentration 800 nM): 5.34%
Cell Death Rate/% 1 (MCF7 [4]; final concentration 800 nM): 5.34%
Cell Death Rate/% 2 (MCF7 [4]; final concentration 800 nM): 5.39%
Cell Death Rate/% 3 (MCF7 [4]; final concentration 800 nM): 5.66%
Cell Death Rate/% mean (BT474 [5]; final concentration 800 nM): 5.28%
Cell Death Rate/% 1 (BT474 [5]; final concentration 800 nM): 5.47%
Cell Death Rate/% 2 (BT474 [5]; final concentration 800 nM): 5.1%
Cell Death Rate/% 3 (BT474 [5]; final concentration 800 nM): 5.27%
Cell Death Rate/% mean (MMTV-HER2 [6]; final concentration 800 nM): 8.28%
Cell Death Rate/% 1 (MMTV-HER2 [6]; final concentration 800 nM): 8.34%
Cell Death Rate/% 2 (MMTV-HER2 [6]; final concentration 800 nM): 8.46%
Cell Death Rate/% 3 (MMTV-HER2 [6]; final concentration 800 nM): 8.05%
Cell Death Rate/% mean ([7]; final concentration 800 nM): 5.55%
Cell Death Rate/% 1 ([7]; final concentration 800 nM): 5.86%
Cell Death Rate/% 2 ([7]; final concentration 800 nM): 5.42%
Cell Death Rate/% 3 ([7]; final concentration 800 nM): 5.37%
